Assay results reported in the NIST ThermoML archive (doi:10.1016/j.jct.2018.11.010).

Assay: xn = mol fraction of the nth substance listed
Settings: Liquid, Vibrating tube method

CCCCCCCO [heptan-1-ol] + CCCCOCCCC
mass density [kg/m3]
Settings	x2 = 0	x2 = 0.1488	x2 = 0.3201	x2 = 0.4944	x2 = 0.7014	x2 = 0.8534
298.15 K, 100 kPa	818.7	810.1	800.3	790.9	779.5	771.7
298.15 K, 1000 kPa	819.3	810.8	801	791.6	780.2	772.5
298.15 K, 5000 kPa	821.9	813.5	803.9	794.6	783.5	775.8
298.15 K, 10000 kPa	824.9	816.7	807.3	798.3	787.3	779.9
298.15 K, 15000 kPa	828	819.9	810.6	801.8	791	783.7
298.15 K, 20000 kPa	830.8	822.9	813.8	805	794.5	787.4
298.15 K, 25000 kPa	833.5	825.8	816.9	808.3	797.9	790.8
298.15 K, 30000 kPa	836.3	828.6	819.8	811.4	801.1	794.2
298.15 K, 35000 kPa	838.8	831.2	822.6	814.3	804.2	797.4
298.15 K, 40000 kPa	841.3	833.9	825.3	817.1	807.3	800.5
298.15 K, 45000 kPa	843.8	836.5	828	819.9	810.2	803.5
298.15 K, 50000 kPa	846.2	838.9	830.6	822.6	813	806.4
298.15 K, 55000 kPa	848.5	841.3	833.1	825.3	815.7	809.2
298.15 K, 60000 kPa	850.8	843.7	835.5	827.8	818.4	811.9
298.15 K, 65000 kPa	853	845.9	837.9	830.3	820.9	814.6
298.15 K, 70000 kPa	855.2	848.2	840.3	832.7	823.5	817.2
298.15 K, 80000 kPa	859.4	852.6	844.8	837.3	828.3	822.2
298.15 K, 90000 kPa	863.5	856.7	849.1	841.9	833	827
298.15 K, 100000 kPa	867.3	860.7	853.2	846.1	837.4	831.5
298.15 K, 110000 kPa	871.1	864.6	857.2	850.2	841.6	835.8
298.15 K, 120000 kPa	874.6	868.2	861	854	845.6	839.9
298.15 K, 130000 kPa	878.1	871.8	864.6	857.8	849.6	843.9
298.15 K, 140000 kPa	881.5	875.3	868.2	861.4	853.3	847.8
313.15 K, 100 kPa	808	799	788.8	778.9	767	758.8
313.15 K, 1000 kPa	808.6	799.7	789.5	779.7	767.8	759.7
313.15 K, 5000 kPa	811.4	802.6	792.5	783	771.3	763.3
313.15 K, 10000 kPa	814.7	806.1	796.3	786.9	775.6	767.8
313.15 K, 15000 kPa	817.9	809.5	799.8	790.7	779.5	771.9
313.15 K, 20000 kPa	821	812.7	803.3	794.3	783.4	775.9
313.15 K, 25000 kPa	823.8	815.6	806.4	797.5	786.8	779.4
313.15 K, 30000 kPa	826.8	818.8	809.7	801	790.5	783.3
313.15 K, 35000 kPa	829.5	821.6	812.7	804.2	793.7	786.7
313.15 K, 40000 kPa	832.1	824.4	815.5	807.1	796.9	790
313.15 K, 45000 kPa	834.7	827	818.3	810.1	800	793.2
313.15 K, 50000 kPa	837.2	829.7	821.1	812.9	803	796.3
313.15 K, 55000 kPa	839.7	832.3	823.8	815.7	805.9	799.3
313.15 K, 60000 kPa	842.1	834.8	826.4	818.4	808.7	802.2
313.15 K, 65000 kPa	844.4	837.2	828.9	821	811.5	804.9
313.15 K, 70000 kPa	846.7	839.6	831.3	823.5	814.1	807.7
313.15 K, 80000 kPa	851.1	844	836	828.4	819.1	812.9
313.15 K, 90000 kPa	855.3	848.4	840.6	833.2	824	817.9
313.15 K, 100000 kPa	859.3	852.5	844.8	837.5	828.7	822.6
313.15 K, 110000 kPa	863.2	856.6	849.1	841.8	833.2	827.2
313.15 K, 120000 kPa	867	860.4	853	845.9	837.3	831.5
313.15 K, 130000 kPa	870.6	864.2	856.9	849.9	841.4	835.7
313.15 K, 140000 kPa	874.2	867.8	860.6	853.7	845.4	839.8
333.15 K, 100 kPa	793.3	783.8	772.9	762.5	749.9	741.3
333.15 K, 1000 kPa	794	784.6	773.7	763.4	750.8	742.3
333.15 K, 5000 kPa	797.1	787.8	777.2	767.1	754.8	746.5
333.15 K, 10000 kPa	800.7	791.7	781.4	771.5	759.6	751.4
333.15 K, 15000 kPa	804.3	795.4	785.3	775.8	764.1	756.1
333.15 K, 20000 kPa	807.7	798.9	789.1	779.6	768.3	760.5
333.15 K, 25000 kPa	810.8	802.3	792.6	783.4	772.2	764.7
333.15 K, 30000 kPa	813.9	805.5	796	787	776.1	768.6
333.15 K, 35000 kPa	816.9	808.7	799.3	790.4	779.7	772.4
333.15 K, 40000 kPa	819.8	811.7	802.5	793.7	783.2	776.1
333.15 K, 45000 kPa	822.4	814.5	805.5	796.9	786.5	779.5
333.15 K, 50000 kPa	825.2	817.4	808.5	800	789.8	782.9
333.15 K, 55000 kPa	827.8	820.1	811.3	802.9	792.9	786
333.15 K, 60000 kPa	830.3	822.7	814.1	805.8	795.9	789.2
333.15 K, 65000 kPa	832.9	825.3	816.8	808.6	798.9	792.2
333.15 K, 70000 kPa	835.3	827.9	819.5	811.4	801.7	795.1
333.15 K, 80000 kPa	839.9	832.7	824.4	816.6	807.1	800.7
333.15 K, 90000 kPa	844.5	837.4	829.3	821.6	812.3	806
333.15 K, 100000 kPa	848.7	841.7	833.8	826.3	817.2	811.1
333.15 K, 110000 kPa	852.8	845.9	838.2	830.8	821.9	815.9
333.15 K, 120000 kPa	856.8	850	842.3	835.1	826.4	820.5
333.15 K, 130000 kPa	860.5	853.9	846.4	839.3	830.7	824.8
333.15 K, 140000 kPa	864.3	–	–	–	–	–
